According to the supplement of paper PMC10307832:

How the values were obtained:
Assay in all cases: relative viability (nuclei count vs DMSO), 5 days (fraction); higher = more cells survive
NCI-H1792 = tested on: NCI-H1792
How it was run: (§1)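 Relative viability is defined as nuclei in treated wells over nuclei in vehicle wells. Duplicate plates were run and medians reported. Lung cancer cell lines in 1536-well plates were dosed by pin tool one day after seeding, with one drug or with a fixed anchor-drug dose plus five library-drug doses (not always all listed) in √10 steps, and nuclei were counted after 5 days.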

LCLC-103H = tested on: LCLC-103H
How it was run: as §1

201T = tested on: 201T
How it was run: as §1

RERF-LC-KJ = tested on: RERF-LC-KJ
How it was run: as §1

NCI-H23 = tested on: NCI-H23
How it was run: as §1

NCI-H322M = tested on: NCI-H322M
How it was run: as §1

HCC-15 = tested on: HCC-15
How it was run: as §1

LK-2 = tested on: LK-2
How it was run: as §1

LXF-289 = tested on: LXF-289
How it was run: as §1

CAL-12T = tested on: CAL-12T
How it was run: as §1

COR-L 105 = tested on: COR-L 105
How it was run: as §1

H3255 = tested on: H3255
How it was run: as §1

BEN = tested on: BEN
How it was run: as §1

NCI-H2228 = tested on: NCI-H2228
How it was run: as §1

HARA = tested on: HARA
How it was run: as §1

LC-2-ad = tested on: LC-2-ad
How it was run: as §1

HCC-827 = tested on: HCC-827
How it was run: as §1

NCI-H1437 = tested on: NCI-H1437
How it was run: as §1

NCI-H1651 = tested on: NCI-H1651
How it was run: as §1

NCI-H2085 = tested on: NCI-H2085
How it was run: as §1

UMC-11 = tested on: UMC-11
How it was run: as §1

LU99A = tested on: LU99A
How it was run: as §1

NCI-H2405 = tested on: NCI-H2405
How it was run: as §1

For `Cc1cnc(-c2cnc(NCCNc3ccc(C#N)cn3)nc2-c2ccc(Cl)cc2Cl)[nH]1` + CCNC(=O)c1noc(-c2cc(C(C)C)c(O)cc2O)c1-c1ccc(CN2CCOCC2)cc1 [Luminespib] (partner 0.01 µM), the relative viability (NCI-H1792; first compound 0.08 µM) was 0.668, the relative viability (NCI-H1792; first compound 0.253 µM) was 0.432 and the relative viability (NCI-H1792; first compound 0.8 µM) was 0.493. For the same compound, the relative viability (NCI-H1792; first compound 2.53 µM) was 0.392, the relative viability (LCLC-103H; first compound 0.08 µM) was 1.08 and the relative viability (LCLC-103H; first compound 0.253 µM) was 0.865. The relative viability (LCLC-103H; first compound 0.8 µM) was 0.933, the relative viability (LCLC-103H; first compound 2.53 µM) was 0.826 and the relative viability (201T; first compound 0.08 µM) was 1.11. The relative viability (201T; first compound 0.8 µM) was 1.06, the relative viability (201T; first compound 2.53 µM) was 1.01 and the relative viability (RERF-LC-KJ; first compound 0.08 µM) was 1.23. For the same compound, the relative viability (RERF-LC-KJ; first compound 0.253 µM) was 1.12, the relative viability (RERF-LC-KJ; first compound 0.8 µM) was 1.27 and the relative viability (RERF-LC-KJ; first compound 2.53 µM) was 1.32. For the same compound, the relative viability (NCI-H23; first compound 0.08 µM) was 0.22, the relative viability (NCI-H23; first compound 0.253 µM) was 0.218 and the relative viability (NCI-H23; first compound 0.8 µM) was 0.216. For the same compound, the relative viability (NCI-H23; first compound 2.53 µM) was 0.209, the relative viability (NCI-H322M; first compound 0.08 µM) was 0.969 and the relative viability (NCI-H322M; first compound 0.253 µM) was 0.808. The relative viability (NCI-H322M; first compound 0.8 µM) was 0.857, the relative viability (NCI-H322M; first compound 2.53 µM) was 1.03 and the relative viability (HCC-15; first compound 0.08 µM) was 0.303. It also gave a relative viability (HCC-15; first compound 0.253 µM) of 0.217, a relative viability (HCC-15; first compound 0.8 µM) of 0.318 and a relative viability (HCC-15; first compound 2.53 µM) of 0.398. For the same compound, the relative viability (LK-2; first compound 0.08 µM) was 0.197, the relative viability (LK-2; first compound 0.253 µM) was 0.227 and the relative viability (LK-2; first compound 0.8 µM) was 0.239. For the same compound, the relative viability (LK-2; first compound 2.53 µM) was 0.205, the relative viability (LXF-289; first compound 0.08 µM) was 0.695 and the relative viability (LXF-289; first compound 0.253 µM) was 0.605. The relative viability (LXF-289; first compound 0.8 µM) was 0.726, the relative viability (LXF-289; first compound 2.53 µM) was 0.665 and the relative viability (CAL-12T; first compound 0.08 µM) was 0.932. It also gave a relative viability (CAL-12T; first compound 0.253 µM) of 0.259, a relative viability (CAL-12T; first compound 0.8 µM) of 0.387 and a relative viability (CAL-12T; first compound 2.53 µM) of 0.242. The relative viability (COR-L 105; first compound 0.08 µM) was 0.846, the relative viability (COR-L 105; first compound 0.253 µM) was 0.648 and the relative viability (COR-L 105; first compound 0.8 µM) was 0.696. It also gave a relative viability (COR-L 105; first compound 2.53 µM) of 0.654, a relative viability (H3255; first compound 0.08 µM) of 0.96 and a relative viability (H3255; first compound 0.253 µM) of 0.933. The relative viability (H3255; first compound 0.8 µM) was 0.977, the relative viability (H3255; first compound 2.53 µM) was 0.835 and the relative viability (BEN; first compound 0.08 µM) was 0.338. The relative viability (BEN; first compound 0.253 µM) was 0.612, the relative viability (BEN; first compound 0.8 µM) was 0.702 and the relative viability (BEN; first compound 2.53 µM) was 0.501. The relative viability (NCI-H2228; first compound 0.08 µM) was 0.131, the relative viability (NCI-H2228; first compound 0.253 µM) was 0.156 and the relative viability (NCI-H2228; first compound 0.8 µM) was 0.133. The relative viability (NCI-H2228; first compound 2.53 µM) was 0.159, the relative viability (HARA; first compound 0.08 µM) was 0.896 and the relative viability (HARA; first compound 0.253 µM) was 0.568. For the same compound, the relative viability (HARA; first compound 0.8 µM) was 0.665, the relative viability (HARA; first compound 2.53 µM) was 0.709 and the relative viability (LC-2-ad; first compound 0.08 µM) was 0.956. The relative viability (LC-2-ad; first compound 0.253 µM) was 0.683, the relative viability (LC-2-ad; first compound 2.53 µM) was 0.963 and the relative viability (HCC-827; first compound 0.08 µM) was 0.719. For the same compound, the relative viability (HCC-827; first compound 0.8 µM) was 0.752, the relative viability (HCC-827; first compound 2.53 µM) was 0.564 and the relative viability (NCI-H1437; first compound 0.08 µM) was 1.06. The relative viability (NCI-H1437; first compound 0.253 µM) was 1.06, the relative viability (NCI-H1437; first compound 0.8 µM) was 1.14 and the relative viability (NCI-H1437; first compound 2.53 µM) was 1.14. The relative viability (NCI-H1651; first compound 0.08 µM) was 1.03, the relative viability (NCI-H1651; first compound 0.253 µM) was 0.864 and the relative viability (NCI-H1651; first compound 0.8 µM) was 0.762. For the same compound, the relative viability (NCI-H1651; first compound 2.53 µM) was 0.883, the relative viability (NCI-H2085; first compound 0.08 µM) was 0.456 and the relative viability (NCI-H2085; first compound 0.253 µM) was 0.486. It also gave a relative viability (NCI-H2085; first compound 0.8 µM) of 0.462, a relative viability (NCI-H2085; first compound 2.53 µM) of 0.339 and a relative viability (UMC-11; first compound 0.08 µM) of 1.02. It also gave a relative viability (UMC-11; first compound 0.253 µM) of 0.934, a relative viability (UMC-11; first compound 0.8 µM) of 1.03 and a relative viability (UMC-11; first compound 2.53 µM) of 0.995. It also gave a relative viability (LU99A; first compound 0.08 µM) of 0.243, a relative viability (LU99A; first compound 0.253 µM) of 0.382 and a relative viability (LU99A; first compound 0.8 µM) of 0.261. The relative viability (LU99A; first compound 2.53 µM) was 0.234, the relative viability (NCI-H2405; first compound 0.08 µM) was 0.763 and the relative viability (NCI-H2405; first compound 0.253 µM) was 0.552. The relative viability (NCI-H2405; first compound 0.8 µM) was 0.822 and the relative viability (NCI-H2405; first compound 2.53 µM) was 0.574.
